In US9833497B2, “Human originated EGF domain proteins and use of the same” (CHENGDU SOURCEBIO LIMITED-LIABILITY COMPANY, priority 2013, dated 2017):

Assays:
Type in all cases: cell-based
Proteus vulgaris = assay: MIC against Gram-negative bacteria: Proteus vulgaris; details: 5×10^5 CFU/mL; for MIC P. vulgaris: 96-well plate, 37° C., 10 h; for MIC (μg/mL) P. vulgaris: 10 h cultivation at 37° C.
Summary of the method: (§1)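 Growth inhibition by human EGF domain proteins was scored in LB liquid culture seeded at 5×10^5 CFU/mL. Protein was applied as a two-fold dilution series in triplicate, with shaking incubation at 37° C; MIC is the lowest concentration giving no growth.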

E. coli DH5α = assay: Antibacterial activity: MIC and growth curve against E. coli DH5α in 96-well plate; details: minimal inhibitory concentration against E. coli DH5α; 96-well plate, 5×10^5 CFU/mL, 37° C., judged after 8 h
Summary of the method: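 MIC taken as lowest protein level with no bacterial growth, tracked by A600 every 30 min during 37 °C, 175 rpm culture. Two-fold protein series 50-12.5 μg/mL final, triplicate wells, against 5×10^5 CFU/mL of LB-washed mid-log cells.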

Pseudomonas aeruginosa = assay: MIC against Gram-negative bacteria: Pseudomonas aeruginosa; details: 5×10^5 CFU/mL; for MIC P. aeruginosa: 96-well plate, 37° C., 10 h; for MIC (μg/mL) P. aeruginosa: 10 h cultivation at 37° C.
Summary of the method: as §1

Citrobacter diversus = assay: MIC against Gram-negative bacteria: Citrobacter diversus; details: 5×10^5 CFU/mL; for MIC C. diversus: 96-well plate, 37° C., 10 h; for MIC (μg/mL) C. diversus: 10 h cultivation at 37° C.
Summary of the method: as §1

Enterobacter cloacae = assay: MIC against Gram-negative bacteria: Enterobacter cloacae; details: 5×10^5 CFU/mL; for MIC E. cloacae: 96-well plate, 37° C., 10 h; for MIC (μg/mL) E. cloacae: 10 h cultivation at 37° C.
Summary of the method: as §1

Serratia marcescens = assay: MIC against Gram-negative bacteria: Serratia marcescens; details: 5×10^5 CFU/mL; for MIC S. marcescens: 96-well plate, 37° C., 10 h; for MIC (μg/mL) S. marcescens: 10 h cultivation at 37° C.
Summary of the method: as §1

Proteus mirabilis = assay: MIC against Gram-negative bacteria: Proteus mirabilis; details: 5×10^5 CFU/mL; for MIC P. mirabilis: 96-well plate, 37° C., 10 h; for MIC (μg/mL) P. mirabilis: 10 h cultivation at 37° C.
Summary of the method: as §1

Aeromonas hydrophila = assay: MIC against Gram-negative bacteria: Aeromonas hydrophila; details: 5×10^5 CFU/mL; for MIC A. hydrophila: 96-well plate, 37° C., 10 h; for MIC (μg/mL) A. hydrophila: 10 h cultivation at 37° C.
Summary of the method: as §1

Moraxella catarrhalis = assay: MIC against Gram-negative bacteria: Moraxella catarrhalis; details: 5×10^5 CFU/mL; for MIC M. catarrhalis: 96-well plate, 37° C., 10 h; for MIC (μg/mL) M. catarrhalis: 10 h cultivation at 37° C.
Summary of the method: as §1

Klebsiella pneumonia = assay: MIC against Gram-negative bacteria: Klebsiella pneumonia; details: 5×10^5 CFU/mL; for MIC K. pneumonia: 96-well plate, 37° C., 10 h; for MIC (μg/mL) K. pneumonia: 10 h cultivation at 37° C.
Summary of the method: as §1

E. coli BL21 = assay: MIC against Gram-negative bacteria: E. coli BL21; details: 5×10^5 CFU/mL; for MIC E. coli BL21: 96-well plate, 37° C., 10 h; for MIC (μg/mL) E. coli BL21: 10 h cultivation at 37° C.
Summary of the method: as §1

Substance | MIC P. vulgaris (Proteus vulgaris) [µg/mL] | MIC (E. coli DH5α) [µg/mL] | MIC P. aeruginosa (Pseudomonas aeruginosa) [µg/mL] | MIC C. diversus (Citrobacter diversus) [µg/mL] | MIC E. cloacae (Enterobacter cloacae) [µg/mL] | MIC S. marcescens (Serratia marcescens) [µg/mL] | MIC P. mirabilis (Proteus mirabilis) [µg/mL] | MIC A. hydrophila (Aeromonas hydrophila) [µg/mL] | MIC M. catarrhalis (Moraxella catarrhalis) [µg/mL] | MIC K. pneumonia (Klebsiella pneumonia) [µg/mL] | MIC E. coli BL21 (E. coli BL21) [µg/mL] | MIC (μg/mL) P. vulgaris (Proteus vulgaris) [µg/mL] | MIC (μg/mL) P. aeruginosa (Pseudomonas aeruginosa) [µg/mL] | MIC (μg/mL) C. diversus (Citrobacter diversus) [µg/mL] | MIC (μg/mL) E. cloacae (Enterobacter cloacae) [µg/mL] | MIC (μg/mL) S. marcescens (Serratia marcescens) [µg/mL] | MIC (μg/mL) P. mirabilis (Proteus mirabilis) [µg/mL] | MIC (μg/mL) A. hydrophila (Aeromonas hydrophila) [µg/mL] | MIC (μg/mL) M. catarrhalis (Moraxella catarrhalis) [µg/mL] | MIC (μg/mL) K. pneumonia (Klebsiella pneumonia) [µg/mL] | further results
PRT728 (ATNPCKDNNGGCEQVCVLSHRTDNDGLGFRCKCTFGFQLDTDERHCI; listed as Homo sapiens) | 12.5 | 25 | 25 | 25 | 25 | 25 | 12.5 | 12.5 | 12.5 | 12.5 | 25 | – | – | – | – | – | – | – | – | – | –
PRT729 (GSNACNQPTHPNGDCSHFCFPVPNFQRVCGCPYGMRLASNHLTCE; listed as Homo sapiens) | 25 | 12.5 | 12.5 | 12.5 | 12.5 | 50 | 12.5 | 25 | 25 | 25 | 25 | – | – | – | – | – | – | – | – | – | –
PRT730 (NGNSCSDFNGGCTHECVQEPFGAKCLCPLGFLLANDSKTCE; listed as Homo sapiens) | 12.5 | 25 | 25 | 12.5 | 50 | 25 | 50 | 25 | 25 | 25 | 12.5 | – | – | – | – | – | – | – | – | – | –
PRT732 (SVNPCAFSRCSHLCLLSSQGPHFYSCVCPSGWSLSPDLLNCL; listed as Homo sapiens) | 25 | 12.5 | 12.5 | 25 | 25 | 12.5 | 25 | 12.5 | 50 | 50 | 50 | – | – | – | – | – | – | – | – | – | –
PRT733 (SSNGCSNNMNACQQICLPVPGGLFSCACATGFKLNPDNRSCS; listed as Homo sapiens) | 12.5 | 50 | 50 | 25 | 50 | 25 | 25 | 12.5 | 50 | 12.5 | 12.5 | – | – | – | – | – | – | – | – | – | –
PRT734 (NNNPCLENNGGCSHLCFALPGLHTPKCDCAFGTLQSDGKNCA; listed as Homo sapiens) | 25 | 50 | 25 | 25 | 12.5 | 50 | 25 | 50 | 12.5 | 50 | 12.5 | – | – | – | – | – | – | – | – | – | –
PRT735 (GEENCNVNNGGCAQKCQMVRGAVQCTCHTGYRLTEDGHTCQ; listed as Homo sapiens) | 50 | 12.5 | 12.5 | 50 | 12.5 | 25 | 12.5 | 25 | 25 | 25 | 50 | – | – | – | – | – | – | – | – | – | –
PRT736 (DVNECAEEGYCSQGCTNSEGAFQCWCETGYELRPDRRSCK; listed as Homo sapiens) | 25 | 12.5 | 50 | 12.5 | 50 | 50 | 12.5 | 25 | 25 | 50 | 25 | – | – | – | – | – | – | – | – | – | –
PRT738 (FHTRCEEDNGGCSHLCLLSPSEPFYTCACPTGVQLQDNGRTCK; listed as Homo sapiens) | 25 | 50 | 25 | 12.5 | 12.5 | 25 | 50 | 50 | 25 | 50 | 12.5 | – | – | – | – | – | – | – | – | – | –
PRT740 (GLNDCMHNNGQCGQLCLAIPGGHRCGCASHYTLDPSSRNCS; listed as Homo sapiens) | 12.5 | 12.5 | 50 | 12.5 | 50 | 25 | 25 | 12.5 | 50 | 12.5 | 12.5 | – | – | – | – | – | – | – | – | – | –
PRT741 (SAHPCARDNGGCSHICIAKGDGTPRCSCPVHLVLLQNLLTCG; listed as Homo sapiens) | 25 | 12.5 | 12.5 | 50 | 50 | 12.5 | 50 | 12.5 | 12.5 | 25 | 50 | – | – | – | – | – | – | – | – | – | –
PRT744 (GWNECASSNGHCSHLCLAVPVGGFVCGCPAHYSLNADNRTCS; listed as Homo sapiens) | – | 12.5 | – | – | – | – | – | – | – | – | – | 25 | 12.5 | 12.5 | 12.5 | 12.5 | 25 | 50 | 50 | 50 | MIC (μg/mL) E. coli BL21 (E. coli BL21): 50 µg/mL
PRT745 (RQHPCAQDNGGCSHICLVKGDGTTRCSCPMHLVLLQDELSCG; listed as Homo sapiens) | – | 50 | – | – | – | – | – | – | – | – | – | 50 | 50 | 50 | 50 | 25 | 25 | 12.5 | 12.5 | 12.5 | MIC (μg/mL) E. coli BL21 (E. coli BL21): 25 µg/mL
PRT747 (DIDECKDPDACSQICVNYKGYFKCECYPGYEMDLLTKNCK; listed as Homo sapiens) | – | 50 | – | – | – | – | – | – | – | – | – | 25 | 12.5 | 50 | 12.5 | 12.5 | 50 | 12.5 | 12.5 | 12.5 | MIC (μg/mL) E. coli BL21 (E. coli BL21): 50 µg/mL
PRT748 (YTASCQPWSCSGHGECVEIINNYTCNCDVGYYGPQCQ; listed as Homo sapiens) | – | 50 | – | – | – | – | – | – | – | – | – | 12.5 | 12.5 | 50 | 50 | 25 | 50 | 12.5 | 12.5 | 25 | MIC (μg/mL) E. coli BL21 (E. coli BL21): 25 µg/mL
PRT750 (DIDECQVAPGEAPTCDHHCHNHLGGFYCSCRAGYVLHRNKRTCS; listed as Homo sapiens) | – | 25 | – | – | – | – | – | – | – | – | – | 12.5 | 50 | 50 | 12.5 | 50 | 50 | 25 | 12.5 | 25 | MIC (μg/mL) E. coli BL21 (E. coli BL21): 12.5 µg/mL
